Here are results for one compound from PMC10390652 (Inorganic chemistry, 2023).

The data set can be described thus: Biodistribution in healthy mice. The format is in vivo, female Balb/c mice. To be noted: in saline.

Take `[47Sc+3].[Cl-].[Cl-].[Cl-]` [free ^47Sc]: the “biodistribution pattern at 1 hour” value by setting is: (n=4) “more widespread uptake within heart, lungs, spleen, kidney, and femur”; (n=4, listed as [^47Sc]ScCl3) “widespread biodistribution with uptake seen in heart, spleen and kidneys along with the liver, and intestines”.
